Consider one molecule from patent US12708620B2, “Prodrugs and medical uses thereof” (priority 2018, dated 2026).

The test system of series [1] is SW1990. Put plainly: in vitro cell culture sensitivity in anoxic conditions. The format is cell-based, human.
A short description of series [2]: preliminary toxicology study, intravenous administration. The format is in vivo, dog. How it is done: Preliminary toxicology studies of the intravenous administration of Cpd.11 Ms in rats and dogs according to a dosing regimen consisting of 3 consecutive days of administration in a 3 weekly cycle (QDx3/cycle) have shown that potential haematological toxicity in tissues such as the bone marrow, the thymus and lymph nodes (known to have hypoxic niches) can be minimized at dosages at or below 400 mg/kg in the rat and at or below 100 mg/kg in the dog. As such, these levels correspond to 2360 mg/m^2 and 2000 mg/m^2, respectively, in human subjects. […] Alternative dosing regimens also include weekly administration for up to 3 or 4 consecutive times of each 3 or 4 weekly cycle. In addition, also an initial dose of QDx3 or QDx5 could be combined with less frequent administration schedules that may still allow a therapeutic effect over tumor growth and development, such as up to 3 or 4 weekly dosages in 3 to 4 weekly cycles, or once a month (or every three-four weeks) schedules that be applied with or without the parallel treatment with the appropriate standard-of-care protocols.

For series [3], the system named is MDA-MB-231 tumor xenograft. Briefly: triple negative breast cancer xenograft model. Particulars: MDA-MB-231 xenograft; single treatment cycle. It is filed as in vivo, BALB/c Nude Mice.
For series [4], the system named is SW1990 tumor xenograft. Briefly: pancreatic cancer xenograft model. The format is in vivo, BALB/c Nude Mice. As to conditions: 600 mg/kg IP, hypoxic status absent, methanesulfonate.
The test system of series [5] is MDA-MB-436 tumor xenograft. Put plainly: triple negative breast cancer xenograft model. Particulars: MDA-MB-436 xenograft, single treatment cycle; for Anti-tumor effect: 600 mg/kg IP, hypoxic status confirmed, methanesulfonate, 600 mg/kg. The format is in vivo, BALB/c Nude Mice. On the procedure:
(§1) All animal models were established as xenograft model in BALB/c Nude Mice (6-8 weeks old, 17-23 grams, maintained in standard conditions and diet), following approved IACUC (Institutional Animal Care and Use Committees) protocols. Cpd.11 Ms was formulated using 2% dimethyl sulfoxide (DMSO in water for injection, starting from a Cpd.11 Ms main preparation (100-60 mg/ml in 2% DMSO in water for injection).
(§2) After tumor cell inoculation, the animals were checked daily for morbidity and mortality. Before commencement of treatment all animals were weighed and the tumor volumes were measured using a caliper. The treatments were started when the mean tumor size reached approx. 250 mm^3. Each treated/control group contained 10 mice that were randomly assigned and injected daily for 5 days. The date of tumor cell inoculation was denoted as day 0 (thus injections were performed at day 1, 2, 3, 4, and 5). At the time of routine monitoring, the animals were checked for any effects of tumor growth and treatments on normal behavior such as mobility, visual estimation of food and water consumption, body weight gain/loss (body weights were measured daily during the 5-day treatment and thrice weekly after treatment), eye/hair matting and any other abnormal effect. Death and observed clinical signs were recorded on the basis of the numbers of animals within each subset. Tumor volumes were measured daily during the 5-day treatment and thrice weekly after treatment in two dimensions using a caliper, and the volume was expressed in mm3 using the formula: V=0.5 a×b2 where a and b are the long and short diameters of the tumor, respectively. The entire procedures of dosing as well as tumor and body weight measurement were conducted in a Laminar Flow Cabinet. Individual mice were euthanized by cervical dislocation when the tumor size reached 1400-1600 mm3. The surrogate endpoint for survival was calculated and indicated as TVx4 (initial tumor volume times 4). Statistical analysis of difference in tumor volume among the groups was conducted at the end of experiment using Independent-Samples T Test. All data were analyzed in SPSS (Statistical Product and Service Solutions) version 18.0 (IBM, Armonk, NY, U.S.). P-values were rounded to three decimal places, with the exception that raw P-values less than 0.001 were stated as P<0.001. All tests were two-sided. P<0.05 was considered to be statistically significant.
(§3) For the MDA-MB-436 tumor (ATCC: HTB-130; Passage: P4) cells were maintained in vitro as a monolayer culture in L-15 medium supplemented with 10% heat inactivated fetal bovine serum at 37° C. in an atmosphere of 100% air. […] The cells growing in an exponential growth phase were harvested and counted for tumor inoculation. […]

Series [6] deals with PANC-1 tumor xenograft. Put plainly: pancreatic cancer (PDAC) xenograft model. It is filed as in vivo, BALB/c Nude Mice. Particulars: PANC-1 xenograft; for Anti-tumor effect: 600 mg/kg IP, hypoxic status confirmed, methanesulfonate, 600 mg/kg. On the procedure:
as §1, §2, §3

As to `CCN1CCN(C(=O)c2cc(N(CCBr)CCOS(C)(=O)=O)c(S(C)(=O)=O)cc2[N+](=O)[O-])CC1.CS(=O)(=O)O` [Cpd.11 Ms, 4-(5-((2-bromoethyl) (2-((methylsulfonyl)oxy)ethyl)amino)-4-(methylsulfonyl)-2-nitrobenzoyl)-1-ethylpiperazin-1-ium methanesulfonate], the “sensitivity in anoxic conditions in vitro” value in series [1] was “highly Cpd.11 Ms-sensitive”. Further, the “dosage at which potential haematological toxicity (bone marrow, thymus, lymph nodes) can be minimized” value in series [2] (dog, intravenous, QDx3 in a 3 weekly cycle) is no more than 100 mg/kg. In addition, in series [2] (from 100 mg/kg in the dog), the “corresponding level in human subjects of the dog dosage” value is 2000 mg/m^2. Moreover, the tumour growth result in series [3] is on record as “tumour growth rate reduction”. The Anti-tumor effect entry in series [4] (listed as Cpd.11Ms) is given as “No impact”; in series [4], “not observed”; in series [5] (listed as Cpd.11Ms), “Strong impact,”; in series [5] it was “significant regression of the tumour”; in series [6] (single treatment cycle, listed as Cpd.11Ms), “Clear impact,”; in series [6] (single treatment cycle), “significant tumour growth retardation”. Besides, in series [5] (IP), the “effects on body weight” value is on record as “absence of effects on body weight”. For the same molecule, the “median surrogate survival index (TVx4) compared to vehicle treated animals” value in series [5] (IP) is “more than double”. Moreover, the body weight loss entry in series [6] (IP) was “without major body weight loss”. For the same molecule, in series [6] (single treatment cycle, P=0.0018), the “increase in median surrogate survival index” value was “approx. 50%”.
